Assay results taken from the NIST ThermoML archive (doi:10.1016/j.jct.2018.12.013).

Conditions: Liquid, Gas chromatography

C=CC(=C)CCC=C(C)C [2-methyl-6-methylene-2,7-octadiene]
Conditions | vapor or sublimation pressure [kPa]
287.7 K | 0.1
297.15 K | 0.21
298.15 K | 0.22
313.2 K | 0.57
320.4 K | 0.87
323.2 K | 1
328.2 K | 1.3
330 K | 1.5
333.3 K | 1.8
338.2 K | 2.3
340.2 K | 2.5
343.5 K | 2.9
348.2 K | 3.7
353.2 K | 4.6
353.4 K | 4.6
355.8 K | 5.2
358.2 K | 5.7
360 K | 6.2
363.3 K | 7.1
365.8 K | 7.9
366.2 K | 8
370 K | 9.4
371.9 K | 10
379.2 K | 13
385 K | 17
390 K | 20
399.2 K | 27
410 K | 38
418.2 K | 49
421.5 K | 54
428.2 K | 65
433.5 K | 76
439.1 K | 90
444.7 K | 101

CC1(C)C2=CCCC(C)(C)[C@]23CC[C@H]1C3 [(-)-isolongifolene]
Conditions | vapor or sublimation pressure [kPa]
298.15 K | 0.0043
310 K | 0.011
320 K | 0.023
330 K | 0.046
340 K | 0.086
350 K | 0.16
360 K | 0.27
370 K | 0.46
378.2 K | 0.69
380.2 K | 0.76
386.2 K | 1
388.2 K | 1.1
392.2 K | 1.3
393.2 K | 1.4
395 K | 1.5
400 K | 1.8
410 K | 2.8
419.2 K | 4
424.2 K | 4.8
430 K | 6
440 K | 8.5
450 K | 11.8
460 K | 16
470 K | 22
480 K | 29
490 K | 38
500 K | 50
510 K | 63.88
520 K | 81
527 K | 95.41
528.2 K | 100
529.6 K | 101
